Measured values taken from BindingDB's records for doi:10.1021/bi002865v (Pharmacia, 2001).
Where a SMILES comes first, the peptide text is derived from it. [ ]: non-standard residue; d: D form. sY = N[C@@H](Cc1ccc(OS(=O)(=O)O)cc1)C(=O)O; Nle = CCCC[C@H](N)C(=O)O

Target: T1, Tyrosine-protein phosphatase non-receptor type 1 (Rattus norvegicus, UniProt P20417)
T1 sequence (P20417 whole entry): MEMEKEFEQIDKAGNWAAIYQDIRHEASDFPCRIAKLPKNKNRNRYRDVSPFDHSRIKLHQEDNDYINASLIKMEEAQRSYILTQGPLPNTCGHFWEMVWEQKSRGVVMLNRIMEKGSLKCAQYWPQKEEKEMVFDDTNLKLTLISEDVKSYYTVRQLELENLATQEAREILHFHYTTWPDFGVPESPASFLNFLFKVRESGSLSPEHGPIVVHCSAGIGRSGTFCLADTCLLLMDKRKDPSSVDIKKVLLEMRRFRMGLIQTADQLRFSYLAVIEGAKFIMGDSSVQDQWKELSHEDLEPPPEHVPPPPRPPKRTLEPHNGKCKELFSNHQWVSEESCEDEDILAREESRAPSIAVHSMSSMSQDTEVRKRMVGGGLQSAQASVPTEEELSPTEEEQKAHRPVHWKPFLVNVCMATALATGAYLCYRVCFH
Experiment: PTP1B Inhibition Assay
Conditions: pH 7.2; 22 °C
Description: Hydrolysis of substrate p-nitrophenyl phosphate was monitored on a 96-well microplate reader. Concentrations of PTP1B inhibitors that resulted in 50% reduction of enzyme activity (IC50) were derived by fitting reaction rates obtained in the presence and absence of compounds.

Row | SMILES | Ki
1 | CCCCCNC(=O)[C@H](Cc1ccc(OC(C(=O)O)C(=O)O)cc1)NC(=O)CCC(=O)O [2-{4-[(2S)-2-(3-formamidopropanoic acid)-2-(pentylcarbamoyl)ethyl]phenoxy}propanedioic acid] | 12 µM
2 | CCCCCNC(=O)[C@H](Cc1ccc(OS(=O)(=O)O)cc1)NC(=O)CCC(=O)O [Compound II] | 30 µM
3 | CCCCCNC(=O)[C@H](Cc1ccc(OCC(=O)OC)c(C(=O)OC)c1)NC(=O)[C@H](Cc1ccccc1)NC(=O)CCC(=O)OC [methyl 2-(2-methoxy-2-oxoethoxy)-5-[(2S)-2-[(2S)-2-(methyl 3-formamidopropanoate)-3-phenylpropanamido]-2-(pentylcarbamoyl)ethyl]benzoate] | > 100 µM

Now those with a lower Ki, led by results:

Row | Ki | SMILES
4 | 5 µM | CCCC[C@H](NC(=O)[C@H](Cc1ccc(OS(=O)(=O)O)cc1)NC(=O)[C@H](CC(=O)O)NC(C)=O)C(N)=O (Ac-Asp-[sY]-[Nle]-NH2)
5 | 2.8 µM | CCCCCNC(=O)[C@H](Cc1ccc(OCC(=O)O)c(C(=O)O)c1)NC(=O)CCC(=O)O [2-(carboxymethoxy)-5-[(2S)-2-(3-formamidopropanoic acid)-2-(pentylcarbamoyl)ethyl]benzoic acid]
6 | 1.2 µM | CCCCCNC(=O)[C@H](Cc1ccc(OC(C(=O)O)C(=O)O)cc1)NC(=O)[C@H](Cc1ccccc1)NC(=O)CCC(=O)O [2-{4-[(2S)-2-[(2S)-2-(3-formamidopropanoic acid)-3-phenylpropanamido]-2-(pentylcarbamoyl)ethyl]phenoxy}propanedioic acid]
7 | 0.12 µM | CCCCCNC(=O)[C@H](Cc1ccc(OCC(=O)O)c(C(=O)O)c1)NC(=O)[C@H](Cc1ccccc1)NC(=O)Cn1[nH]ncc1=S [2-(carboxymethoxy)-5-[(2S)-2-(pentylcarbamoyl)-2-[(2S)-3-phenyl-2-[1-(5-sulfanyl-1H-1,2,3-triazol-1-yl)acetamido]propanamido]ethyl]benzoic acid]
